Calls of active or inactive are those of the source. The calls are words filed in the database; no cut-off is given here.
How the values were obtained:
[1] = tested on: HUVEC; experiment: Activation of PI3K in cisplatin-treated HUVEC cells assessed as increase PIP3 formation pretreated for 30 mins followed by cisplatin addition by immunoprecipitation analysis; format: cell-based; details: Homo sapiens, filed as activator, dose 10-30 µM
[2] = tested on: HUVEC; experiment: Downregulation of cisplatin-induced PKCalpha translocation in HUVEC cells at 30 uM incubated for 15 mins in presence of cisplatin and eNOS inhibitor, N(G)-nitro-L-arginine methyl ester by Western blot analysis; format: functional, cell-based; details: Homo sapiens
[3] = tested on: HUVEC; experiment: Improvement in cisplatin-induced endothelial monolayer integrity in HUVEC cells assessed as reduction in transmembrane movement of albumin at 30 uM preincubated with compound followed by cisplatin stimulation and measured after 2 hrs; format: functional, cell-based; details: Homo sapiens
[4] = tested on: U-937; experiment: (§1) Inhibition of cisplatin-induced ICAM1 dependent HUVEC cells adhesion to human U-937 cells at 10 to 30 uM preincubated with HUVEC cells for 4.5 hrs in presence of cisplatin followed by U-937 cell suspension addition and measured after 1 hr by BCECF fluorescent probe based assay; format: functional; details: dose 10-30 µM, time 5.5 hrs
[5] = tested on: U-937; experiment: as §1, with “of cisplatin and PI3K inhibitor, wortmannin followed by” for “of cisplatin followed by”; format: functional; details: dose 10-30 µM, time 5.5 hrs
[6] = target: T1, Nitric oxide synthase 3 (Homo sapiens) (UniProt P29474); experiment: Activation of eNOS activity in cisplatin-treated HUVEC cells assessed as increase in eNOS phosphorylation at Ser1177 residue at 30 uM measured after 5 to 60 mins by Western blot analysis; format: cell-based; details: filed as activator, time 5-60 min
T1 sequence (whole entry): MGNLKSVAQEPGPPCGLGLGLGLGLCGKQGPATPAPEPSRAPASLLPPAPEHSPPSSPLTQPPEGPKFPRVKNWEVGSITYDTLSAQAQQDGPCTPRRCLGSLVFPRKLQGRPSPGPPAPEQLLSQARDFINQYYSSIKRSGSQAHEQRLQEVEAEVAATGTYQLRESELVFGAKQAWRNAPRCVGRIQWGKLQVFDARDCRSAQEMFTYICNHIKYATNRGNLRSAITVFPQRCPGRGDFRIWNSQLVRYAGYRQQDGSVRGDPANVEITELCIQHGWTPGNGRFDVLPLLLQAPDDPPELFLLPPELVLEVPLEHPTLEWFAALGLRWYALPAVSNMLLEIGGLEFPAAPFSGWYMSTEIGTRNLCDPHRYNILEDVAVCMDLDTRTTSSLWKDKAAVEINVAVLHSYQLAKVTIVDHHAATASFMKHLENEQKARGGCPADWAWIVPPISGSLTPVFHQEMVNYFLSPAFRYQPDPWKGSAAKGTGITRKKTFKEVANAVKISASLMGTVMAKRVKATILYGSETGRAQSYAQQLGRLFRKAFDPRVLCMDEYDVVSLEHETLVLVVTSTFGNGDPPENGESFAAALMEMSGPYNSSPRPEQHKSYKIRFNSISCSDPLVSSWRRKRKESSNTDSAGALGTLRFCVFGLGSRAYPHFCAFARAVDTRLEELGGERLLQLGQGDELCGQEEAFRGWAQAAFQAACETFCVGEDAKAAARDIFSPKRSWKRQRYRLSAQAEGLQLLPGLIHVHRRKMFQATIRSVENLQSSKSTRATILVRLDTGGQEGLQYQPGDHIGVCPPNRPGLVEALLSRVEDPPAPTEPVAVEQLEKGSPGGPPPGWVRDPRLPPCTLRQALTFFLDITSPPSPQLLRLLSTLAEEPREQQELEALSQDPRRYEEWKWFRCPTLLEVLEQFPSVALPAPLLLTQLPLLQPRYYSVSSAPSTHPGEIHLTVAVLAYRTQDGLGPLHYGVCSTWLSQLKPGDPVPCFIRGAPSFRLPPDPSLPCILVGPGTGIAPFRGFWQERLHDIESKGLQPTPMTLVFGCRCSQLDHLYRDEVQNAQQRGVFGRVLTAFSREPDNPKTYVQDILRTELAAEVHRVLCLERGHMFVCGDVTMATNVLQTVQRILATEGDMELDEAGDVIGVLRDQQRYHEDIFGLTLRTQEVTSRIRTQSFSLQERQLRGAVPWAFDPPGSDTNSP

[7] = tested on: HUVEC; experiment: Improvement in cisplatin-induced endothelial monolayer integrity in HUVEC cells assessed as increase in transendothelial electric resistance at 30 uM preincubated with compound in presence of eNOS inhibitor, N(G)-nitro-L-arginine methyl ester followed by cisplatin stimulation and measured after 45 mins; format: functional, cell-based; details: Homo sapiens
[8] = target: T1, Nitric oxide synthase 3 (Homo sapiens); experiment: Activation of eNOS activity in cisplatin-treated HUVEC cells assessed as increase in intracellular cGMP level at 30 uM preincubated with eNOS inhibitor, N(G)-nitro-L-arginine methyl ester followed by compound addition and further incubated for 15 mins by radioimmunoassay; format: cell-based
[9] = tested on: HUVEC; experiment: Downregulation of cisplatin-induced ICAM1 protein expression in HUVEC cells at 30 uM preincubated with PI3K inhibitor, wortmannin followed by compound addition and further incubated for 1 hr by Western blot analysis; format: functional, cell-based; details: Homo sapiens
[10] = tested on: HUVEC; experiment: Inhibition of cisplatin-induced ICAM-1 protein expression in HUVEC cells preincubated for 30 mins followed by cisplatin addition and measured after 24 hrs by Western blot analysis; format: functional, cell-based; details: Homo sapiens, dose 10-30 µM, time 24.5 hrs
[11] = tested on: HUVEC; experiment: Upregulation of cytosolic p65 level in cisplatin-treated HUVEC cells at 30 uM incubated for 1 hr by Western blot analysis; format: functional, cell-based; details: Homo sapiens
[12] = target: T2, NF-kappa-B inhibitor alpha (Homo sapiens) (UniProt P25963); experiment: Inhibition of cisplatin-induced phosphorylation of IkappaBalpha at Ser32/36 residue in HUVEC cells at 30 uM incubated for 1 hr by Western blot analysis; format: cell-based
T2 sequence (whole entry): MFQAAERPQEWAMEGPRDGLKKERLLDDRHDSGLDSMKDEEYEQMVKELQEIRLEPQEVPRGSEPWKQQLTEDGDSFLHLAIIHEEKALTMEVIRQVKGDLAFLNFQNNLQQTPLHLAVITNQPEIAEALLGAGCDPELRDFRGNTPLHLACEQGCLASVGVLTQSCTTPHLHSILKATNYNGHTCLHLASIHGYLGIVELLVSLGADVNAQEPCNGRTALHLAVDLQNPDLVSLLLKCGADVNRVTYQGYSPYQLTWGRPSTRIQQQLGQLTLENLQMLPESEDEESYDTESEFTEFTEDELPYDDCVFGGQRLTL

[13] = tested on: HUVEC; experiment: Upregulation of cytosolic p65 level in cisplatin-treated HUVEC cells at 30 uM preincubated with eNOS inhibitor, N(G)-nitro-L-arginine methyl ester followed by compound addition and further incubated for 1 hr by Western blot analysis; format: functional, cell-based; details: Homo sapiens
[14] = target: Transcription factor p65 (Homo sapiens) (UniProt Q04206); experiment: Inhibition of cisplatin-induced phosphorylation of p65 subunit at Ser536 residue in HUVEC cells at 30 uM preincubated with eNOS inhibitor, N(G)-nitro-L-arginine methyl ester followed by compound addition and further incubated for 1 hr by Western blot analysis; format: cell-based
Sequence of Transcription factor p65 (Homo sapiens) (Q04206 whole entry): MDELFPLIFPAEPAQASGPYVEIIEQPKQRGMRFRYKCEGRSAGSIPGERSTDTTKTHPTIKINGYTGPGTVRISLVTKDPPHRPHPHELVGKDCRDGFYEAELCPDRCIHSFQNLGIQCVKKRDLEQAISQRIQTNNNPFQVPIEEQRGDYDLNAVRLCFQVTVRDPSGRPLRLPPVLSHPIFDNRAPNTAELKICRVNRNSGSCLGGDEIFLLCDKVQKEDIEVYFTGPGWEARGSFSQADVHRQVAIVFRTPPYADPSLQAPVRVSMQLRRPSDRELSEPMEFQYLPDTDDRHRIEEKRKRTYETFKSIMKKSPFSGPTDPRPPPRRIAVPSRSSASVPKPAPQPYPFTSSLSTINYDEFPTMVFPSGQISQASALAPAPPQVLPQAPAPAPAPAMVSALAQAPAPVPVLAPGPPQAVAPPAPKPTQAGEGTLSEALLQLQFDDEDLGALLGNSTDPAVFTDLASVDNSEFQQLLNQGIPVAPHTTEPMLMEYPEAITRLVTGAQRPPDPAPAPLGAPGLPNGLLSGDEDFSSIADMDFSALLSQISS

[15] = tested on: HUVEC; experiment: Downregulation of cisplatin-induced ICAM1 protein expression in HUVEC cells at 30 uM incubated for 1 hr by Western blot analysis; format: functional, cell-based; details: Homo sapiens
[16] = tested on: U-937; experiment: Cytotoxicity against human U-937 cells assessed as reduction in cell viability at <=30 uM measured after 24 hrs by MTT assay; format: toxicity, cell-based; details: u-937, 24 h

## C=C1CC[C@@H]2[C@](C)(CO)[C@H](O)CC[C@@]2(C)[C@@H]1C/C=C1/C(=O)OC[C@H]1O [ANDROGRAPHOLIDE]
[1]
  Activity: Dose-Dependent Effect
[2]
  Activity: inactive
[3]
  Activity: Active
[4]
  inhibition: Active
[5]
  inhibition: inactive
[6]
  Activity: Active
[7]
  Activity: inactive
[8]
  Activity: inactive
[9]
  Activity: inactive
[10]
  inhibition: Dose-Dependent Effect
[11]
  Activity: Active
[12]
  inhibition: Active
[13]
  Activity: inactive
[14]
  inhibition: inactive
[15]
  Activity: Active
[16]
  Activity: Non-Toxic

From ChEMBL document CHEMBL5223073, “Andrographolide suppresses cisplatin-induced endothelial hyperpermeability through activation of PI3K/Akt and eNOS -derived nitric oxide” (Bioorg Med Chem, 2020)
